The target in the experiment is Sphingosine 1-phosphate receptor 4 (Homo sapiens) (UniProt O95977). Kind of experiment: S1P4 receptor agonist activity, late-stage follow-up, counter-screen for S1PR3 antagonist project, cell-based, FRET, dose response (AID 743430). Conditions: S1P4-expressing cells, FRET reporter, agonist mode. In general terms: Counterscreens check selectivity or assay interference.

The source of these data is PubChem BioAssay AID743430 (The Scripps Research Institute Molecular Screening Center, 2014).

Broadly, the EC50 is the concentration giving half of the maximal effect.

Activity calls are given as the source filed them. How the calls were made is not given here.

Sphingosine 1-phosphate receptor 4 (Homo sapiens), sequence (O95977 whole entry, looked up): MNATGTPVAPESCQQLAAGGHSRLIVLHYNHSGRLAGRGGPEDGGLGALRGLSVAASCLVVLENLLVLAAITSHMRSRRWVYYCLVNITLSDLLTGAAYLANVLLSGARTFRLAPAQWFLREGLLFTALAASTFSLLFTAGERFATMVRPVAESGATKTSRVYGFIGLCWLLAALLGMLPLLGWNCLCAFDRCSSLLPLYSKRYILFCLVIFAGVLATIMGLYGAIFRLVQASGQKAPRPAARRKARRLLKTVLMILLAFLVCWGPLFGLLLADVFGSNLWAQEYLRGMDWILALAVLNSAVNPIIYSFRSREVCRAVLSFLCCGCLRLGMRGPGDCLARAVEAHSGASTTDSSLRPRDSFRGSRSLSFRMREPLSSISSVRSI

Regarding `Cc1ccc(C(NC(=O)c2cccc(Cl)c2)c2nc(-c3ccccc3)no2)cc1` (configuration not stated), the EC50 is > 50 µM (inactive).

With `O=C(NC(c1ccccc1)c1nc(-c2ccccc2)no1)c1ccc(Cl)cc1` (configuration not stated), the EC50 is > 50 µM (inactive).

Turning to `O=C(NC(c1ccc(Cl)cc1)c1nc(-c2cccc(Cl)c2)no1)c1cccc(Cl)c1` (configuration not stated), the EC50 is > 50 µM (inactive).

On to `O=C(NC(c1ccccc1)c1nc(-c2ccccc2)no1)c1cccc(Br)c1` (configuration not stated), for which the EC50 result was “inactive”.

As to `O=C(NC(c1ccc(Cl)cc1)c1nc(-c2ccccn2)no1)c1cccc(Cl)c1` (configuration not stated), the EC50 was > 50 µM (inactive).

With `Cc1ccc(C(=O)NC(c2ccccc2)c2nc(-c3ccccc3)no2)cc1` (configuration not stated), the EC50 was > 50 µM (inactive).

With `CCc1ccc(C(NC(=O)c2cccc(Cl)c2)c2nc(-c3ccccc3)no2)cc1` (configuration not stated), the EC50 is > 50 µM (inactive).

Regarding `O=C(NC(c1ccc(Cl)c(Cl)c1)c1nc(-c2ccccc2)no1)c1cccc(Cl)c1` (configuration not stated), the EC50 is > 50 µM (inactive).

On to `O=C(NC(c1nc(-c2ccccc2)no1)C1CCOCC1)c1ccc(Cl)c(Cl)c1` (configuration not stated), for which the EC50 was > 50 µM (inactive).

For the compound `N#Cc1ccc(C(=O)NC(c2ccc(Cl)c(Cl)c2)c2nc(-c3ccccc3)no2)cc1` (configuration not stated), the EC50 was > 50 µM (inactive).

As to `O=C(NC(c1cccc(Cl)c1)c1nc(-c2ccccc2)no1)c1ccc(Cl)c(Cl)c1` (configuration not stated), the EC50 is > 50 µM (inactive).

Turning to `O=C(NC(c1ccc(Cl)cc1)c1nc(-c2ccccc2)no1)c1ccc(Cl)c(Br)c1` (configuration not stated), the EC50 is > 50 µM (inactive).

For the compound `O=C(NC(c1ccccc1)c1nc(-c2ccccc2)no1)c1cccc(Cl)n1` (configuration not stated), the EC50 is > 50 µM (inactive).

As to `O=C(c1cccc(Cl)c1)N(CCO)C(c1ccc(Cl)c(Cl)c1)c1nc(-c2ccccc2)no1` (configuration not stated), the EC50 was > 50 µM (inactive).

For `COc1ccc(C(=O)NC(c2ccccc2)c2nc(-c3ccccc3)no2)cc1` (configuration not stated), the EC50 was > 50 µM (inactive).

As for `O=C(NC(c1ccccc1)c1nc(-c2ccccc2)no1)c1cccc(Cl)c1` (configuration not stated), the EC50 is > 50 µM (inactive).

Take `O=C(NC(c1ccc(Br)cc1)c1nc(-c2ccccc2)no1)c1ccc(Cl)c(Cl)c1` (configuration not stated): the EC50 was > 50 µM (inactive).

`O=C(NC(c1ccc(Cl)cc1)c1nc(-c2ccccc2)no1)c1cccc(Cl)c1` (configuration not stated): the EC50 was > 50 µM (inactive).

With `O=C(NC(Cc1ccccc1)c1nc(-c2ccccc2)no1)c1cccc(Cl)c1` (configuration not stated), the EC50 is > 50 µM (inactive).

Consider `O=C(NC(c1ccc(Cl)c(Cl)c1)c1nc(-c2ccccc2)no1)c1ccccc1` (configuration not stated), for which the EC50 was > 50 µM (inactive).

For `O=C(NC(c1cccc(Cl)c1)c1nc(-c2ccccc2)no1)c1cccc(Cl)c1` (configuration not stated), the EC50 is > 50 µM (inactive).

With `O=C(NC(c1ccc(Cl)cc1)c1nc(-c2ccccc2)no1)c1ccc(Cl)c(Cl)c1` (configuration not stated), the EC50 is > 50 µM (inactive).

As for `O=C(NC(c1nc(-c2ccccc2)no1)C1CCCCC1)c1ccc(Cl)c(Cl)c1` (configuration not stated), the EC50 is > 50 µM (inactive).

`O=C(NC(c1ccc(Cl)c(Cl)c1)c1nc(-c2ccccc2)no1)c1ccc(Cl)cc1` (configuration not stated): the EC50 is > 50 µM (inactive).

For `O=C(NC(c1ccc(Cl)c(Cl)c1)c1nc(-c2ccccc2)no1)c1ccc(Cl)c(Cl)c1` (configuration not stated), the EC50 was > 50 µM (inactive).

`O=C(NC(c1ccc(Cl)cc1)c1nc(-c2ccccc2)no1)c1cccc(Br)c1` (configuration not stated): the EC50 was > 50 µM (inactive).

With `O=C(NC(c1cccc(Cl)c1)c1nc(-c2ccccc2)no1)c1cc(Cl)cc(Cl)c1` (configuration not stated), the EC50 was > 50 µM (inactive).
